# Source: patent publication US20230293680A1, “A COMPOSITION OF ANTI-DR5 ANTIBODIES AND AN IMMUNOMODULATORY IMIDE DRUG FOR USE IN TREATING MULTIPLE MYELOMA” (Genmab B.V., priority 2020, published 2023)
# Where two headings read alike, the source gives them in different places.
# Tests used:
# NCI-H929 cells [1] = assay: viability of lenalidomide-preincubated NCI-H929 cells; assay type: cell-based, human; settings: NCI-H929 cells preincubated 5 days with 3 μM lenalidomide
# Procedure: FIG. 11: Percentage inhibition of viability of lenalidomide-preincubated NCI-H929 cells by HexaBody-DR5/DR5, lenalidomide and the combination thereof. […] Graphs show the mean and SD of duplicate measurements from a representative experiment (n=3).
# primary MM cells [2] = settings: 3 μM, 24 h viability assays on primary MM cells ex vivo
# primary MM cells [3] = assay: 24-hour ex vivo viability assay with BMNCs of MM patients, flow cytometry; assay type: cell-based, human; settings: 20 μg/mL
# [4] = nonclinical immune agonism / cytokine release assessment
# [5] = dose range finding study by intravenous infusion, plasma PK; assay type: in vivo, cynomolgus monkey; settings: 0.1, 0.5, 5 and 25 mg/kg IV
# [6] = system: colorectal cancer PDX model CR3056; assay: in vivo anti-tumor activity, PDX model; design: species or system mice
# Procedure: (§1) Immunodeficient 8-13 weeks old female BALB/c athymic nude mice (Beijing HFK Bio-Technology Co. Ltd.) or nu/nu mice (Vital River Laboratories Research Models and Services) were inoculated subcutaneously at the right flank with one tumor fragment (2-3 mm diameter) derived from colorectal cancer PDX model CR0126 or CR3056 at CrownBio, Beijing, China. Earmarks were placed for mouse identification. Tumor volumes were measured at least twice per week using a digital caliper (PLEXX). Tumor volumes (mm^3) were calculated as follows: tumor volume=0.5×(length)×(width)^2. When the mean tumor size reached ˜200 mm^3, mice were divided into groups of 8 mice each, with equal tumor size distribution (average and variance). Mice were treated QW×2 by IV injection of 10 μL IgG1-DR5-01-G56T-E430G+IgG1-DR5-05-E430G per gram body weight: 0.2 mg/mL (2 mg/kg) or 0.05 mg/mL (0.5 mg/kg). For each model, statistical analysis was performed on the last day that all groups were intact.
# [7] = system: colorectal cancer PDX model CR0126; assay: in vivo anti-tumor activity, PDX model; design: species or system mice; settings: 2 mg/kg QWx2 IV; Mann-Whitney p<0.0379
# Procedure: as §1
# [8] = single dose study by intravenous infusion, plasma PK (generic IgG ECLIA); settings: for Cmax / Tmax / Vd: group mean
# [9] = cynomolgus monkey, in vivo, iv
# CDX and PDX mouse models = assay: in vivo anti-tumor response in CDX and PDX mouse models (overall)
# Procedure: Therefore, the FIH starting dose of 0.3 mg/kg was considered to be in the lower end of a potential therapeutic dose-range in human patients.
# NCI-H929 cells [10] = assay: cytotoxicity in NCI-H929 cells with healthy donor PBMCs; assay type: cell-based, human; settings: 20 μg/mL, 24 h, absence and presence of healthy donor PBMCs
# Procedure: FIG. 12: Inhibition of cell viability by HexaBody-DR5/DR5 in combination with lenalidomide on NCI-H929 cells in presence and absence of healthy donor peripheral blood mononuclear cells (PBMCs) in vitro. (A) Percentage kill of NCI-H929 cells by 20 μg/mL HexaBody-DR5/DR5 after a 24-hour incubation in the absence and presence of healthy donor PBMCs (n=6) in a 40:1 effector to target ratio. Mean and SD are shown. (ns) not significant (paired t-test). […] NCI-H929 cells were incubated with lenalidomide-exposed PBMCs and treated with lenalidomide and/or HexaBody-DR5/DR5 for an additional 24 h. Mean percentage kill and SD is shown. **p<0.005; ***p<0.0005 (paired t-test).
# To test possible indirect immunomodulatory effects of lenalidomide on HexaBody-DR5/DR5-mediated killing, PBMCs of healthy donors were preincubated with 3 μM lenalidomide for 5 days. Subsequently, NCI-H929 cells were incubated with 3 μM lenalidomide, lenalidomide-exposed PBMCs and/or 20 μg/mL HexaBody-DR5/DR5 for an additional 24 h.
# SK-MES-1 = assay: three-day viability assay (CellTiter-Glo); assay type: cell-based, human; settings: SK-MES-1 NSCLC, 3 days
# Procedure: (§2) COLO 205 cancer cells were harvested by pooling the culture supernatant containing non-adherent cells and trypsinized adherent cells. The other cell lines were harvested by trypsinization. For trypsinization, adherent cells were incubated with Trypsin-EDTA (Gibco, Cat no 15400-054) diluted in PBS (B.Braun; Cat no 3623140) to a final concentration of 0.05% Trypsin for 2 minutes at 37° C. and passed through a cell strainer. Cells were pelleted by centrifugation for 5 minutes at 1,200 rpm and resuspended at a concentration of 0.5x10^5 cells/mL in culture medium.
# (§3) 100 μL of single cell suspensions (5,000 cells per well) were seeded in polystyrene 96-well flat-bottom plates (Greiner Bio-One, Cat no 655180) and allowed to adhere overnight at 37° C. The following day, 50 μL antibody samples (0.002-133 nM final concentrations in 4-fold dilutions) were added to the adherent cells and incubated for 3 days at 37° C. As a positive control in all viability assays, cells were incubated with 5 μM staurosporine (Sigma Aldrich, Cat no S6942), and untreated cells were included as the negative control. The viability of the cultured cells was determined in a CellTiter-Glo Luminescent Cell Viability Assay (Promega, Cat no G7571) that quantifies the presence of ATP, which is an indicator of metabolically active cells. From the kit, 15 μL Luciferin Solution Reagent was added to each well of the viability assay plate. Next, plates were incubated for 1.5 hours at 37° C. 100 μL supernatant was transferred to a white OptiPlate-96 (Perkin Elmer, Cat no 6005299) and luminescence was measured on an EnVision Multilabel Reader (PerkinElmer). Data were analyzed and plotted using non-linear regression (sigmoidal dose-response with variable slope) using GraphPad Prism software. The percentage viable cells was calculated using the following formula: % viable cells=[(luminescence antibody sample−luminescence staurosporine sample)/(luminescence no antibody sample−luminescence staurosporine sample)]×100.
# BxPC-3 = assay: three-day viability assay (CellTiter-Glo); assay type: cell-based, human; settings: BxPC-3 pancreatic, 3 days
# Procedure: as §2, §3
# COLO 205 = assay: three-day viability assay (CellTiter-Glo); assay type: cell-based, human; settings: COLO 205 CRC, 3 days
# Procedure: as §2, §3
# A375 = assay: three-day viability assay (CellTiter-Glo); assay type: cell-based, human; settings: A375 melanoma, 3 days
# Procedure: as §2, §3
# PANC-1 = assay: three-day viability assay (CellTiter-Glo); assay type: cell-based, human; settings: PANC-1 pancreatic, 3 days
# Procedure: as §2, §3
# HCT-15 = assay: three-day viability assay (CellTiter-Glo); assay type: cell-based, human; settings: HCT-15 CRC, 3 days
# Procedure: as §2, §3
# SNU-5 = assay: three-day viability assay (CellTiter-Glo); assay type: cell-based, human; settings: SNU-5 gastric, 3 days
# Procedure: as §2, §3
# human cancer cell lines = assay: viability assays in various human cancer cell lines (overall); assay type: cell-based
# Procedure: as §2, §3
# [11] = repeat-dose toxicity study, 5 weekly IV infusions (toxicokinetics, NOAEL/HNSTD)
# [12] = newly diagnosed (ND) patient samples
# [13] = relapsed and/or refractory (RR) patient samples
# [14] = median over the seven cell lines with >40% max inhibition
# [15] = 1QWx5 IV dosing, GLP toxicity study
molecule,measurement,setting,value
Nc1cccc2c1CN(C1CCC(=O)NC1=O)C2=O (stereo not drawn) [lenalidomide],effect of preincubation on HexaBody-DR5/DR5-mediated kill,NCI-H929 cells [1],no direct effect
same,single agent activity,primary MM cells [2],no single agent activity
"HexaBody-DR5/DR5: 1:1 mixture of IgG1-hDR5-01-G56T-E430G and IgG1-hDR5-05-E430G, two non-competing humanized anti-human DR5 IgG1 antibodies",median lysis of MM cells,primary MM cells [3]; RR patients under treatment or last treatment shorter than 1 month before BM biopsy,62%
same,median lysis of MM cells,primary MM cells [3]; RR patients with last exposure to therapy >1 month before BM biopsy,23%
same,median lysis of MM cells,primary MM cells [3]; [12],19%
same,range of lysis of MM cells,primary MM cells [3]; [12],3-69%
same,median lysis of MM cells,primary MM cells [3]; [13],43%
same,range of lysis of MM cells,primary MM cells [3]; [13],0-86%
same,hazard of acute cytokine-releasing activity,[4],no hazard of acute cytokine-releasing activity has been identified
same,immune agonistic properties,[4],no immune agonistic properties
same,"increase in exposure with increasing dose, based on nCmax and nAUC0-∞",[5],proportional increase in exposure
same,target-mediated clearance (plasma concentration-time profiles),[5]; single or repeated dose,no indications of target-mediated clearance
same,tumor growth inhibition,"[6]; 0.5 mg/kg QWx2 IV, Mann-Whitney p<0.0379",significant tumor growth inhibition
same,tumor growth inhibition,"[6]; 2 mg/kg QWx2 IV, Mann-Whitney p<0.0003",significant tumor growth inhibition
same,tumor growth inhibition,[7],significant tumor growth inhibition
same,Cmax,[8]; 0.5 mg/kg single IV,16.7 µg/mL
same,Tmax,[8]; 0.5 mg/kg single IV,1 h
same,Vd,[8]; 0.5 mg/kg single IV,0.0635 L/kg
same,Cmax,[8]; 5 mg/kg single IV,135.0 µg/mL
same,Tmax,[8]; 5 mg/kg single IV,1 h
same,Vd,[8]; 5 mg/kg single IV,0.0726 L/kg
same,Cmax,[8]; 25 mg/kg single IV,470.3 µg/mL
same,Tmax,[8]; 25 mg/kg single IV,3.36 h
same,Vd,[8]; 25 mg/kg single IV,0.091 L/kg
same,"increase in exposure with increasing dose, based on nAUC0-∞",[8]; 0.5 to 25 mg/kg,more or less proportional increase in exposure
same,"increase in exposure, based on nCmax",[8]; between 5 and 25 mg/kg,less than proportional increase in exposure
same,"increase in exposure, based on nCmax",[8]; up to a dose of 5 mg/kg,proportional increase in exposure
same,AUC0-∞ (μg · day/· mL^−1),[9]; 0.5 mg/kg,40.3 μg · day/· mL^−1
same,CL (mL · day^−1/· kg^−1),[9]; 0.5 mg/kg,12.6 mL · day^−1/· kg^−1
same,T1/2,[9]; 0.5 mg/kg,83.5 h
same,nCmax (μg · mL^−1/mg · kg^−1),[9]; 0.5 mg/kg,33.5 μg · mL^−1/mg · kg^−1
same,AUC0-∞ (μg · day/· mL^−1),[9]; 5 mg/kg,452.6 μg · day/· mL^−1
same,CL (mL · day^−1/· kg^−1),[9]; 5 mg/kg,11.4 mL · day^−1/· kg^−1
same,T1/2,[9]; 5 mg/kg,110 h
same,nCmax (μg · mL^−1/mg · kg^−1),[9]; 5 mg/kg,27.0 μg · mL^−1/mg · kg^−1
same,AUC0-∞ (μg · day/· mL^−1),[9]; 25 mg/kg,2748 μg · day/· mL^−1
same,CL (mL · day^−1/· kg^−1),[9]; 25 mg/kg,9.10 mL · day^−1/· kg^−1
same,T1/2,[9]; 25 mg/kg,166 h
same,nCmax (μg · mL^−1/mg · kg^−1),[9]; 25 mg/kg,18.8 μg · mL^−1/mg · kg^−1
same,In vivo anti-tumor response in CDX and PDX mouse models,CDX and PDX mouse models; dose giving full response,2 mg/kg
same,In vivo anti-tumor response in CDX and PDX mouse models,CDX and PDX mouse models; dose giving partial response,0.5 mg/kg
same,effect of FcγR-mediated crosslinking on cytotoxicity,NCI-H929 cells [10],did not increase
same,Average IC20,SK-MES-1,0.086 µg/mL
same,IC20,SK-MES-1,0.572 nM
same,Max inhibition %,SK-MES-1,76.6%
same,Average IC20,BxPC-3,0.102 µg/mL
same,IC20,BxPC-3,0.677 nM
same,Max inhibition %,BxPC-3,89.4%
same,Average IC20,COLO 205,0.015 µg/mL
same,IC20,COLO 205,0.103 nM
same,Max inhibition %,COLO 205,99.6%
same,Average IC20,A375,0.067 µg/mL
same,IC20,A375,0.445 nM
same,Max inhibition %,A375,54.6%
same,Average IC20,PANC-1,0.083 µg/mL
same,IC20,PANC-1,0.554 nM
same,Max inhibition %,PANC-1,61.0%
same,Average IC20,HCT-15,0.104 µg/mL
same,IC20,HCT-15,0.692 nM
same,Max inhibition %,HCT-15,66.7%
same,Average IC20,SNU-5,0.041 µg/mL
same,IC20,SNU-5,0.274 nM
same,Max inhibition %,SNU-5,44.7%
same,maximal inhibition of viability,human cancer cell lines; in seven of the twelve cell lines tested,more than 40%
same,IC20,human cancer cell lines; [14],0.554 nM
same,Overall Median IC20,human cancer cell lines; [14],0.083 µg/mL
same,HNSTDcyno,[11]; [15],50 mg/kg
same,NOAELcyno,[11]; [15],50 mg/kg
same,MRSDhuman (=NOAELcyno/6),[11]; converted from cynomolgus NOAEL/HNSTD,8.3 mg/kg
